Test results published in paper PMC13242511, “Disrupting Notch signalling by a small molecule inhibiting dihydroorotate dehydrogenase activity” (Scientific Reports, 2026).
Several values for one entry are separate records, joined by “and”; a condition that tells them apart may be missing. Identical values can stand only once. Entries after “also recorded” stand apart in the source; their conditions may differ. Like-named read-outs stand apart in the source and are kept apart here.

Experiments:
Notch signalling = assay: Notch reporter assay (12xCSL firefly luciferase / renilla luciferase, HEK293T Notch1ΔE reporter cell line clone #A1-11); type: cell-based; parameters: AUC Notch: scale not given here; conditions: for AUC 9p Notch reporter assay / AUC 14p Notch reporter assay: AUCs averaged when replicates available; for AUC Notch: area under the 14-point dose-response curve; for Notch assay: overview in comparison to compound C, Supplemental Fig. 9; for Bottom (Emax): Emax indicated independent from assay constraints, in % (unit assumed); for activity: 1,25µM; for concentrations associated with cytotoxicity (high dose-points removed): extended dose range, Supplemental Fig. 7B
Method in brief: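 Compounds at two-fold concentration in 10 µl medium were brought to one-fold by adding 10 µl holding 4000 Notch reporter cells (clone #A1-11) per well of a 384-well plate. After 24 h, Promega dual-GLO firefly and renilla luciferase were read on a SpectraMaxi3. Dose-response curves were fitted with a log(inhibitor) vs. response variable-slope model.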

[1] = tested on: T-ALL and breast cancer cell lines; assay: Growth inhibition in tumour cell lines (panel, cell lines not named singly); type: cell-based; parameters: key to tumor cell growth: + indicates that the compound had an effect; -: − indicates that there was no significant effect in the respective assay; conditions: for viability assay: overview in comparison to compound C, Supplemental Fig. 9; for IC50: six days, read-out: IC50, metabolic activity; for tumor cell growth: summary Fig. 8E
From the text: We next investigated whether compounds A-E affected growth and viability of cell lines from T-cell acute lymphoblastic leukaemia (T-ALL) and breast cancer, two tumour types in which elevated Notch signalling has been implicated in tumorigenesis. […] When testing analogues of compounds B and C, five of the seven B analogues and one of the two C analogues produced dose–response curves and IC50s, which however were higher compared to the original hits (Supplemental Fig. 5A; IC50s are presented in Supplemental Table 6).
Compounds were spotted on white 384-well tissue culture plates (Greiner, cat #781080) using an Echo 525 Acoustic liquid handler (Labcyte). Cells were grown to 80% confluence, detached if required, counted and 20 µl containing 2000–4000 cells per well was then seeded in each well and cultivated for three (4,000 cells seeded) and six days (2,000 cells seeded). […] Luciferase activity (reading out metabolic activity) was determined using the CellTiter-Glo 2.0 kit (CTG, Promega, cat #G9242) following the manufacturer’s instructions and luminescence was measured on a SpectraMaxi3 or Varioscan plate reader (Molecular Devices, Thermofisher).

[2] = 14p dose response, single replicates, read-out: approximated IC50s 14p Notch reporter assay
[3] = Homo sapiens, HEK-293T, 9p dose response, averaged over replicates, read-out: 9p Notch reporter assay averaged IC50s
[4] = Homo sapiens, HEK-293T, 9p dose response, log10 of averaged IC50, read-out: 9p Notch reporter assay averaged IC50s (log) (converted)
[5] = Homo sapiens, HEK-293T, 14-point, unit inferred, replicates averaged, read-out: approxiated IC50s 14p Notch reporter assay
[6] = Homo sapiens, HEK-293T, 14p Notch assay DR, log10 value, Notch inhibitor controls, no bottom constraint named, read-out: approximated LogIC50 (converted)
[7] = Homo sapiens, HEK-293T, 14p dose response, single replicates, read-out: approximated IC50s 14p Notch reporter assay
[8] = Homo sapiens, HEK-293T, 14p dose response, log10 of averaged IC50, read-out: 14p Notch reporter assay averaged IC50s (log) (converted)
[9] = 9p dose response, single replicates, read-out: approximated IC50s 9p Notch reporter assay
[10] = Homo sapiens, HEK-293T, 14-point dose-response, Fig. 4, read-out: approximated IC50, Notch reporter assay
[11] = Homo sapiens, HEK-293T, 14p Notch assay DR, bottom constrained to Emax of positive control DAPT, read-out: approximated IC50
[12] = Homo sapiens, HEK-293T, 14p Notch assay DR, bottom constrained to Emax of positive control RO4929097, read-out: approximated IC50
[13] = Homo sapiens, HEK-293T, 14p Notch assay DR, log10 value, bottom constrained to Emax of positive control DAPT, read-out: approximated LogIC50 (converted)
[14] = Homo sapiens, HEK-293T, 14p Notch assay DR, log10 value, bottom constrained to Emax of positive control RO4929097, read-out: approximated LogIC50 (converted)
[15] = Homo sapiens, HEK-293T, 10 µM, primary screen, 24 h, unit from Fig. 2 legend, read-out: Primary screen at 10 µM (Notch reporter signal)
[16] = Homo sapiens, HEK-293T, 10 µM, three-dose confirmation screen, unit from Fig. 2 legend, read-out: Hit confirmation at 10 µM (Notch reporter signal)
[17] = Homo sapiens, HEK-293T, 10µM, 3-point DR confirmation screen, Notch reporter assay, read-out: inhibitor ratio in % of DMSO in 3 point DR
[18] = Homo sapiens, HEK-293T, 10 µM, sheet conf vs counter 10 µM, same values as 3-point DR confirmation screen, read-out: Confirmation screen
[19] = Homo sapiens, HEK-293T, 25µM, 3-point DR confirmation screen, Notch reporter assay, read-out: inhibitor ratio in % of DMSO in 3 point DR
[20] = Homo sapiens, HEK-293T, 25 µM, Notch reporter 3-point dose-confirmation assay, sheet "conf vs counter 25 µM", read-out: Confirmation screen
[21] = Homo sapiens, HEK-293T, 3-point DR confirmation screen, Notch reporter assay, read-out: inhibitor ratio in % of DMSO in 3 point DR

Structure (SMILES) | AUC 9p Notch reporter assay (Notch signalling; 9p dose response) | IC50 (Notch signalling; [2]) | AUC 14p Notch reporter assay (Notch signalling; 14p dose response) | IC50 (Notch signalling; [5]) | AUC Notch (Notch signalling; replicates averaged) | Notch assay (Notch signalling) | viability assay [1] | Bottom (Emax) (Notch signalling; 14p Notch assay DR) | IC50 (Notch signalling; [10]) | IC50 (Notch signalling; [11]) | IC50 (Notch signalling; [12]) | IC50 (Notch signalling; [13]) | activity at 10 µM (Notch signalling; [15]) | activity at 10 µM (Notch signalling; [16]) | activity at 10 µM (Notch signalling; [17]) | activity at 10 µM (Notch signalling; [18]) | activity at 25 µM (Notch signalling; [19]) | activity at 25 µM (Notch signalling; [20]) | activity (Notch signalling; [21]) | tumor cell growth [1] | also measured
CC(C)(C)c1ccc(Oc2ccc(N)cn2)cc1 [CB-103, reference compound] | 3.40E+02 | 5800 nM | 5.46E+02 | 5500 nM | 546.0 | lower potency; also recorded: lower activity than compound C | context specific |  |  |  |  |  |  |  |  |  |  |  |  |  | IC50 (Notch signalling; [3]): 15000 nM; IC50 (Notch signalling; [4]): 15800 nM; IC50 (Notch signalling; [6]): 6310 nM; IC50 (Notch signalling; [7]): 5100 nM; IC50 (Notch signalling; [8]): 5010 nM
C[C@H](NC(=O)Cc1cc(F)cc(F)c1)C(=O)N[C@H](C(=O)OC(C)(C)C)c1ccccc1 [DAPT, reference compound] | 3.01E+02 | 510 nM and 370 nM | 4.95E+02 |  | 495.0 | comparable | context specific | 42.8 and 41.0 |  |  |  |  |  |  |  |  |  |  |  |  | reporter signal in % of DMSO (Notch signalling; 10 µM, inhibitor controls, Supplemental Fig. 2A): 49%; IC50 (Notch signalling; [9]): 290 nM and 260 nM; IC50 (Notch signalling; 9p dose response, averaged over replicates, read-out: 9p Notch reporter assay averaged IC50s): 280 nM; 9p Notch reporter assay averaged IC50s (log) (Notch signalling; 9p dose response, log10 of averaged IC50): -6.6; IC50 (Notch signalling; 14-point, unit inferred, replicates averaged, read-out: approxiated IC50s 14p Notch reporter assay): 440 nM; approximated LogIC50 [M] (Notch signalling; 14p Notch assay DR, log10 value, Notch inhibitor controls, no bottom constraint named): -6.3 M; 14p Notch reporter assay averaged IC50s (log) (Notch signalling; 14p dose response, log10 of averaged IC50): -6.4; renilla signal (Notch signalling; 384-well format): not affected
CC(C)(C(=O)NCC(F)(F)C(F)(F)F)C(=O)N[C@@H]1C(=O)Nc2ccccc2-c2ccccc21 [RO4929097, reference compound] | 2.36E+02 | 45 nM | 4.30E+02 | 53 nM | 430.0 | higher potency | context specific |  |  |  |  |  |  |  |  |  |  |  |  |  | IC50 (Notch signalling; [9]): 31 nM and 13 nM; IC50 (Notch signalling; [3]): 22 nM; IC50 (Notch signalling; [4]): 20 nM; IC50 (Notch signalling; Homo sapiens, HEK-293T, 14p Notch assay DR, Notch inhibitor controls, no bottom constraint named, read-out: approximated IC50): 21.7 nM; IC50 (Notch signalling; Homo sapiens, HEK-293T, 14p Notch assay DR, averaged when replicate measurements were available, read-out: averaged IC50s): 42 nM; IC50 (Notch signalling; [6]): 63.1 nM; IC50 (Notch signalling; [7]): 60 nM; IC50 (Notch signalling; [8]): 50.1 nM
CCc1c(C(=O)N(C)Cc2cnn(C(C)C)c2)[nH]c2ccccc12 [compound A] |  |  |  | 3400 nM | 535.0 |  |  |  | 3300 nM | 4200 nM | 2500 nM | 3980 nM | 25.3% | 27.7% | 27.7% | 27.7% | 19% | 19% | 65.8% | - | IC50 (Notch signalling; Homo sapiens, HEK-293T, 14-point dose-response, read-out: approximated IC50, Notch reporter assay): 4000 nM; IC50 (Notch signalling; [14]): 2510 nM; IC50 ([1]; all cell lines (breast cancer)): > 10000 nM
Cc1ccc2[nH]c3c(c2c1)CCOC31CCN(Cc2ccccc2-c2ccccc2)CC1 [compound B] |  |  |  | 910 nM | 573.0 |  |  |  | 900 nM | 1200 nM | 590 nM | 1260 nM | 60.8% | 65% |  | 65% |  | 69.3% | 79.7% | + | IC50 (Notch signalling; [14]): 631 nM; concentrations associated with cytotoxicity (high dose-points removed) (Notch signalling): higher than 5 µM
COc1cccc(CNc2ccc(N3CCCCC3)cc2)c1OCc1cccs1 [compound C] |  |  |  | 1200 nM | 584.0 | nanomolar potency | context specific | 45.4 |  |  |  | 1260 nM | 50.1% | 66.2% | 66.2% | 66.2% | 65.1% | 65.1% | 61.8% | + | Hill slope, Notch reporter assay (Notch signalling; 14-point dose-response): -16.2; IC50 (Notch signalling; Homo sapiens, HEK-293T, dose range 50 µM-2.5 nM, Fig. 7E, read-out: IC50, Notch reporter activity): 150 nM; concentrations associated with cytotoxicity (high dose-points removed) (Notch signalling): higher than 12.5 µM; IC50 ([1]; Homo sapiens, the other breast cancer cell lines (other than MDA-MB-468)): > 10000 nM
NC(=O)c1c(NC(=O)NCc2cccnc2)sc2c1CCC2 [compound D] |  |  |  | 780 nM | 273.0 |  |  |  | 1000 nM | 1300 nM | 230 nM | 1580 nM | 44.7% | 47% | 47% | 47% | 55.6% | 55.6% | 91% | - | Hill slope, Notch reporter assay (Notch signalling; 14-point dose-response): -1.7; IC50 (Notch signalling; [14]): 251 nM; concentrations associated with cytotoxicity (high dose-points removed) (Notch signalling): higher than 12.5 µM; IC50 ([1]; all cell lines (breast cancer)): > 10000 nM
Cc1nn(-c2nc3ccccc3s2)c(O)c1C1OC(=O)c2ccccc21 (stereo not drawn) [compound E] |  |  |  |  | 577.0 |  |  | 54.2 | 730 nM |  |  | 794 nM | 45% | 38% | 38% | 38% | 35.2% | 35.2% | 37.1% | - | IC50 (Notch signalling; 14-point dose-response, Fig. 4, read-out: approximated IC50, Notch reporter assay): 700 nM; IC50 ([1]; all cell lines (breast cancer)): > 10000 nM
